Measurements reported in the NIST ThermoML archive (doi:10.1021/je060496l).

Columns and labels:
[1] = 101 kPa, Liquid
[2] = xn = mol fraction of the nth substance listed; conditions: 101 kPa, Liquid

CC(O)CO (configuration not stated) [1,2-propanediol]
[1]
Conditions	mass density [kg/m3]
298.15 K	1032.5
303.15 K	1029.2
308.15 K	1025.3
313.15 K	1021.5
318.15 K	1018
323.15 K	1014
328.15 K	1010.2
333.15 K	1006.2

CC(O)CO (configuration not stated) [1,2-propanediol] + OCC(O)CO
mass density [kg/m3], [2]
Conditions	x2 = 0	x2 = 0.0841	x2 = 0.1712	x2 = 0.2615	x2 = 0.3552	x2 = 0.4524	x2 = 0.5534	x2 = 0.6585	x2 = 0.7677	x2 = 0.8815
298.15 K	1032.5	1052.6	1072.7	1094.1	1115.8	1138.3	1161	1184.4	1207.8	1233.3
303.15 K	1029.2	1049.2	1069.6	1090.5	1112.6	1134.8	1157.5	1181.2	1205	1230.1
308.15 K	1025.3	1045.7	1066.1	1087.1	1109.3	1131.4	1154.2	1178	1202.2	1227.4
313.15 K	1021.5	1042	1062.4	1083.8	1105.6	1128.2	1151.2	1175.1	1199.2	1224.4
318.15 K	1018	1038.5	1058.6	1080.2	1102.3	1124.8	1147.9	1171.5	1195.6	1221
323.15 K	1014	1034.7	1055	1076.3	1098.3	1121.2	1144.1	1168.1	1192.5	1218
328.15 K	1010.2	1031	1051.4	1072.7	1094.7	1117.5	1140.5	1164.6	1189	1214.7
333.15 K	1006.2	1027.2	1047.6	1069.2	1091.2	1114.3	1137.3	1161.3	1185.8	1211.3

OCC(O)CO [glycerol]
[1]
Conditions	mass density [kg/m3]
298.15 K	1258.9
303.15 K	1255.6
308.15 K	1252.7
313.15 K	1249.5
318.15 K	1246.2
323.15 K	1242.9
328.15 K	1239.6
333.15 K	1236

OCC(O)CO [glycerol] + CC(C)O
mass density [kg/m3], [2]
Conditions	x1 = 0.0676	x1 = 0.1402	x1 = 0.2185	x1 = 0.3031	x1 = 0.3949	x1 = 0.4946	x1 = 0.6036	x1 = 0.723	x1 = 0.8545	x1 = 1
298.15 K	813.5	848.6	887.5	929.1	974.3	1023.8	1077	1135.2	1196.5	1258.9
303.15 K	809.5	844.7	883.8	926.4	970.6	1020	1073.4	1131.9	1193.4	1255.6
308.15 K	805.5	840.5	879.9	922.3	967.3	1016.2	1070.4	1128.5	1190	1252.7
313.15 K	801.4	836.1	875.9	918.4	963.4	1012.6	1067	1125	1186.8	1249.5
318.15 K	796.8	831.9	871.7	914.5	959.2	1008.7	1063.1	1121.3	1183.2	1246.2
323.15 K	792.2	827.6	867.4	910.2	955.3	1004.8	1059.6	1117.6	1180.3	1242.9
328.15 K	787.5	823.3	863.3	906.2	951.3	1000.9	1055.7	1114.1	1176.6	1239.6
333.15 K	782.9	818.4	858.8	901.6	947.5	997.2	1051.9	1110.5	1173.1	1236

OCC(O)CO [glycerol] + CC(O)CO
[2], x1 = 1
Conditions	mass density [kg/m3]
298.15 K	1258.9
303.15 K	1255.6
308.15 K	1252.7
313.15 K	1249.5
318.15 K	1246.2
323.15 K	1242.9
328.15 K	1239.6
333.15 K	1236

OCC(O)CO [glycerol] + CCCO
mass density [kg/m3], [2]
Conditions	x1 = 0.0676	x1 = 0.1402	x1 = 0.2185	x1 = 0.3031	x1 = 0.3949	x1 = 0.4946	x1 = 0.6036	x1 = 0.723	x1 = 0.8545	x1 = 1
298.15 K	832.8	867.3	903.5	942.9	986	1032.7	1083.1	1138.8	1198.7	1258.9
303.15 K	828.9	863.2	900	939.3	982.1	1029.5	1079.9	1135.7	1195.6	1255.6
308.15 K	825	859.4	896	935.6	978.4	1025.9	1076.3	1132.4	1192.7	1252.7
313.15 K	820.7	855.4	892.1	931.5	974.7	1022.3	1072.7	1128.8	1189.5	1249.5
318.15 K	816.8	851.3	888.3	927.7	970.8	1018.4	1069.2	1125.5	1186.1	1246.2
323.15 K	812.5	847.2	884.1	923.6	966.8	1014.7	1065.5	1122	1182.7	1242.9
328.15 K	808.4	843.1	880.3	919.7	963.3	1010.8	1061.8	1118.3	1179.2	1239.6
333.15 K	804.3	839.2	876.3	915.7	959.4	1006.8	1058	1114.3	1175.8	1236

OCC(O)CO [glycerol] + OCCCO
[2], x1 = 1
Conditions	mass density [kg/m3]
298.15 K	1258.9
303.15 K	1255.6
308.15 K	1252.7
313.15 K	1249.5
318.15 K	1246.2
323.15 K	1242.9
328.15 K	1239.6
333.15 K	1236

OCCCO [propan-1,3-diol]
[1]
Conditions	mass density [kg/m3]
298.15 K	1049.9
303.15 K	1047
308.15 K	1044.1
313.15 K	1040.8
318.15 K	1037.8
323.15 K	1034.8
328.15 K	1031.4
333.15 K	1028.2

OCCCO [propan-1,3-diol] + OCC(O)CO
mass density [kg/m3], [2]
Conditions	x2 = 0	x2 = 0.0841	x2 = 0.1712	x2 = 0.2615	x2 = 0.3552	x2 = 0.4524	x2 = 0.5534	x2 = 0.6585	x2 = 0.7677	x2 = 0.8815
298.15 K	1049.9	1067.8	1086.4	1105.7	1125.6	1146.4	1167.6	1189.3	1212.6	1235.2
303.15 K	1047	1065	1083.5	1103	1122.8	1143.4	1164.6	1186.4	1209	1232.1
308.15 K	1044.1	1062	1080.6	1100	1119.8	1140.6	1161.8	1183.5	1206.1	1229.3
313.15 K	1040.8	1058.8	1077.5	1096.9	1116.8	1137.3	1158.7	1180.4	1203	1226.1
318.15 K	1037.8	1055.7	1074.5	1093.9	1113.7	1134.3	1155.6	1177.2	1199.7	1222.8
323.15 K	1034.8	1052.7	1071.4	1090.9	1110.7	1131.2	1152.5	1174.1	1196.6	1219.8
328.15 K	1031.4	1049.3	1068.1	1087.6	1107.5	1127.8	1149.2	1170.8	1193.4	1216.6
333.15 K	1028.2	1046.1	1064.9	1084.4	1104.1	1124.6	1145.9	1167.5	1190	1213.3

CCCO [propan-1-ol]
[1]
Conditions	mass density [kg/m3]
298.15 K	799.6
303.15 K	795.5
308.15 K	791.5
313.15 K	787.3
318.15 K	783.3
323.15 K	779
328.15 K	774.9
333.15 K	770.8

CCCO [propan-1-ol] + OCC(O)CO
[2], x2 = 0
Conditions	mass density [kg/m3]
298.15 K	799.6
303.15 K	795.5
308.15 K	791.5
313.15 K	787.3
318.15 K	783.3
323.15 K	779
328.15 K	774.9
333.15 K	770.8

CC(C)O [propan-2-ol]
[1]
Conditions	mass density [kg/m3]
298.15 K	780.6
303.15 K	776.6
308.15 K	772.3
313.15 K	767.9
318.15 K	763.3
323.15 K	758.6
328.15 K	753.8
333.15 K	748.9

CC(C)O [propan-2-ol] + OCC(O)CO
[2], x2 = 0
Conditions	mass density [kg/m3]
298.15 K	780.6
303.15 K	776.6
308.15 K	772.3
313.15 K	767.9
318.15 K	763.3
323.15 K	758.6
328.15 K	753.8
333.15 K	748.9
